Laboratory results published in PubChem BioAssay AID248 (DTP/NCI, 2004).
“And” between values parts separate entries of the source, which are not always exact repeats. Equal values may be shown once. Inconclusive results and toxic doses are left out.

Test system: L1210 leukemia ip in BDF1 mice, survival T/C
Assay: NCI In Vivo Anticancer Drug Screen. Data for tumor model L1210 Leukemia (intraperitoneal) in B6D2F1 (BDF1) mice
Conditions: endpoint: mean survival time, higher = longer survival
In short: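 Tumor cells were implanted, animals were treated, and survival was followed. The result divides the treated measurement by the vehicle-control measurement.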

[1] = dose: 100.0 mg/kg/injection, schedule: Q01DX009 (ip), vehicle: Klucel (hydroxypropylcellulose) (HPC)
[2] = dose: 200.0 mg/kg/injection, schedule: Q01DX009 (ip), vehicle: Klucel (hydroxypropylcellulose) (HPC)
[3] = dose: 100.0 mg/kg/injection, schedule: Q04DX003 (ip), vehicle: saline
[4] = dose: 200.0 mg/kg/injection, schedule: Q04DX003 (ip), vehicle: saline
[5] = dose: 50.0 mg/kg/injection, schedule: Q01DX001 (ip), vehicle: saline
[6] = dose: 100.0 mg/kg/injection, schedule: Q01DX001 (ip), vehicle: saline
[7] = dose: 200.0 mg/kg/injection, schedule: Q01DX001 (ip), vehicle: saline
[8] = dose: 400.0 mg/kg/injection, schedule: Q01DX001 (ip), vehicle: saline
[9] = dose: 100.0 mg/kg/injection, schedule: Q01DX001 (ip), vehicle: Klucel (hydroxypropylcellulose) (HPC)
[10] = dose: 100.0 mg/kg/injection, schedule: Q04DX003 (ip), vehicle: Klucel (hydroxypropylcellulose) (HPC)
[11] = dose: 200.0 mg/kg/injection, schedule: Q01DX001 (ip), vehicle: Klucel (hydroxypropylcellulose) (HPC)
[12] = dose: 400.0 mg/kg/injection, schedule: Q01DX001 (ip), vehicle: Klucel (hydroxypropylcellulose) (HPC)
[13] = dose: 100.0 mg/kg/injection, schedule: Q04DX002 (ip), vehicle: saline with Tween-80
[14] = dose: 200.0 mg/kg/injection, schedule: Q04DX002 (ip), vehicle: saline with Tween-80
[15] = dose: 400.0 mg/kg/injection, schedule: Q04DX002 (ip), vehicle: saline with Tween-80
[16] = dose: 100.0 mg/kg/injection, schedule: Q04DX003 (ip), vehicle: saline with Tween-80
[17] = dose: 200.0 mg/kg/injection, schedule: Q04DX003 (ip), vehicle: saline with Tween-80
[18] = dose: 400.0 mg/kg/injection, schedule: Q04DX003 (ip), vehicle: saline with Tween-80
[19] = dose: 100.0 mg/kg/injection, schedule: Q01DX009 (ip), vehicle: saline
[20] = dose: 200.0 mg/kg/injection, schedule: Q01DX009 (ip), vehicle: saline
[21] = dose: 100.0 mg/kg/injection, schedule: Q01DX009 (ip), vehicle: saline with Tween-80
[22] = dose: 400.0 mg/kg/injection, schedule: Q01DX009 (ip), vehicle: saline with Tween-80
[23] = dose: 200.0 mg/kg/injection, schedule: Q04DX003 (ip), vehicle: Klucel (hydroxypropylcellulose) (HPC)
[24] = dose: 400.0 mg/kg/injection, schedule: Q04DX003 (ip), vehicle: Klucel (hydroxypropylcellulose) (HPC)
[25] = dose: 200.0 mg/kg/injection, schedule: Q01DX009 (ip), vehicle: saline with Tween-80
[26] = dose: 400.0 mg/kg/injection, schedule: Q01DX009 (ip), vehicle: Klucel (hydroxypropylcellulose) (HPC)

Structure (SMILES): CCOC(=O)c1cnc2c(ccc3cc(OC)ccc32)c1NCCCN(CC)CC
- T/C (dose: 50.0 mg/kg/injection, schedule: Q01DX009 (ip), vehicle: Klucel (hydroxypropylcellulose) (HPC)): 105 % of control
- T/C [1]: 108 % of control
- T/C [2]: 94 % of control

Structure (SMILES): CCOC(C[N+](C)(C)C)OCC
- T/C (dose: 50.0 mg/kg/injection, schedule: Q04DX003 (ip), vehicle: saline): 93 % of control
- T/C [3]: 97 % of control
- T/C [4]: 101 % of control

Structure (SMILES): N=C(N)c1ccc(-c2cc3cc(C(=N)N)ccc3s2)cc1
- T/C [3]: 105 % of control

Structure (SMILES): O=C(CCCC(=O)NNC(=O)NC(=O)C(Cl)(Cl)Cl)NNC(=O)NC(=O)C(Cl)(Cl)Cl
- T/C [5]: 108 % of control
- T/C [6]: 96 % of control
- T/C [7]: 102 % of control
- T/C [8]: 102 % of control

Structure (SMILES): CCOC(=O)CCc1c(C(=O)OCC)[nH]c(C)c1C(=O)C(=O)OC
- T/C (dose: 25.0 mg/kg/injection, schedule: Q04DX003 (ip), vehicle: Klucel (hydroxypropylcellulose) (HPC)): 101 % of control
- T/C (dose: 50.0 mg/kg/injection, schedule: Q04DX003 (ip), vehicle: Klucel (hydroxypropylcellulose) (HPC)): 98 % of control
- T/C [9]: 95 % of control
- T/C [10]: 103 % of control
- T/C [11]: 93 % of control
- T/C [12]: 90 % of control

Structure (SMILES): C=C(C)C1C/C(=N\O)C(C)/C(=N/O)C1 (stereo not drawn)
- T/C [13]: 100 % of control
- T/C [14]: 96 % of control
- T/C [15]: 93 % of control

Structure (SMILES): O=C(Nc1ccc2c3c(cccc13)CC2)c1cccc([N+](=O)[O-])c1
- T/C (dose: 100.0 mg/kg/injection, schedule: Q01DX001 (ip), vehicle: saline with Tween-80): 102 % of control
- T/C (dose: 200.0 mg/kg/injection, schedule: Q01DX001 (ip), vehicle: saline with Tween-80): 94 % of control
- T/C (dose: 400.0 mg/kg/injection, schedule: Q01DX001 (ip), vehicle: saline with Tween-80): 96 % of control

Structure (SMILES): CCCC(C)(Cl)C(=O)Nc1cccc(OC(=O)NC)c1 (stereo not drawn)
- T/C [16]: 92 % of control
- T/C [17]: 90 % of control
- T/C [18]: 90 % of control

Structure (SMILES): CCc1c(C)nnn1-c1ccccc1
- T/C (dose: 75.0 mg/kg/injection, schedule: Q01DX001 (ip), vehicle: saline): 94 % of control
- T/C (dose: 150.0 mg/kg/injection, schedule: Q01DX001 (ip), vehicle: saline): 91 % of control

Structure (SMILES): COc1ccccc1/C=N\NC(=O)CCCC(=O)N/N=C/c1ccccc1OC
- T/C [5]: 95 % of control
- T/C [7]: 95 % of control
- T/C [8]: 90 % of control

Structure (SMILES): Cn1nnc(CC[N+]2(C)CCOCC2)n1
- T/C [3]: 94 % of control
- T/C [4]: 96 % of control

Structure (SMILES): COc1ccc(OC)c2c1C(=O)CC2C (stereo not drawn)
- T/C [19]: 100 % of control
- T/C [3]: 96 % of control
- T/C [20]: 96 % of control
- T/C [4]: 96 % of control
- T/C (dose: 400.0 mg/kg/injection, schedule: Q04DX003 (ip), vehicle: saline): 91 % of control

Structure (SMILES): COC12C3C=CC4C(C=C3)C4C1C2(Br)Br (stereo not drawn)
- T/C (dose: 50.0 mg/kg/injection, schedule: Q01DX001 (ip), vehicle: Klucel (hydroxypropylcellulose) (HPC)): 105 % of control
- T/C [9]: 96 % of control
- T/C [11]: 105 % of control

Structure (SMILES): O=C1C(Cl)=C(Nc2ccc(Cl)cc2)C(=O)c2ccccc21
- T/C (dose: 50.0 mg/kg/injection, schedule: Q01DX001 (ip), vehicle: carboxymethylcellulose (CMC)): 95 % of control
- T/C (dose: 100.0 mg/kg/injection, schedule: Q01DX001 (ip), vehicle: carboxymethylcellulose (CMC)): 89 % of control
- T/C (dose: 200.0 mg/kg/injection, schedule: Q01DX001 (ip), vehicle: carboxymethylcellulose (CMC)): 98 % of control
- T/C (dose: 400.0 mg/kg/injection, schedule: Q01DX001 (ip), vehicle: carboxymethylcellulose (CMC)): 93 % of control

Structure (SMILES): Nc1nc(N)c(-c2ccc(Cl)cc2)c(COc2cccc(NC(=O)c3ccc([N+](=O)[O-])cc3)c2)n1
- T/C [9]: 104 % of control
- T/C [11]: 97 % of control
- T/C [12]: 91 % of control

Structure (SMILES): COc1cc(N2C(=O)C=CC2=O)ccc1N1C(=O)C=CC1=O
- T/C (dose: 5.0 mg/kg/injection, schedule: Q01DX001 (ip), vehicle: saline): 111 % of control
- T/C (dose: 10.0 mg/kg/injection, schedule: Q01DX001 (ip), vehicle: saline): 111 % of control

Structure (SMILES): CN(CCO)N=Nc1ccccc1C(N)=O
- T/C [21]: 117 % of control
- T/C [16]: 105 % of control
- T/C [17]: 110 % of control
- T/C [22]: 162 % of control and 177 % of control
- T/C [18]: 104 % of control
- T/C (dose: 600.0 mg/kg/injection, schedule: Q01DX009 (ip), vehicle: saline with Tween-80): 176 % of control

Structure (SMILES): NC(CC[Se]CC(N)C(=O)O)C(=O)O (stereo not drawn)
- T/C (dose: 0.5 mg/kg/injection, schedule: Q01DX009 (ip), vehicle: acetone): 110 % of control
- T/C (dose: 1.0 mg/kg/injection, schedule: Q01DX009 (ip), vehicle: acetone): 103 % of control
- T/C (dose: 2.0 mg/kg/injection, schedule: Q01DX009 (ip), vehicle: acetone): 95 % of control
- T/C (dose: 4.0 mg/kg/injection, schedule: Q01DX009 (ip), vehicle: acetone): 108 % of control

Structure (SMILES): O=C1OC(=O)C2C3OC(C(Cl)C3Cl)C12 (stereo not drawn)
- T/C [1]: 106 % of control
- T/C [2]: 106 % of control

Structure (SMILES): NC(=S)NNC=O
- T/C [10]: 95 % of control
- T/C [23]: 92 % of control
- T/C [24]: 100 % of control

Structure (SMILES): CCCNC(=O)Nc1cc(Cl)ccc1OC
- T/C [21]: 100 % of control
- T/C [16]: 95 % of control
- T/C [25]: 94 % of control
- T/C [17]: 103 % of control
- T/C [22]: 96 % of control
- T/C [18]: 94 % of control

Structure (SMILES): COc1ccc(/C=N/N2CCN(/N=C/c3ccc(OC)c(O)c3)CC2)cc1O
- T/C [6]: 93 % of control
- T/C [7]: 87 % of control
- T/C [8]: 96 % of control

Structure (SMILES): Cc1ccc(S(=O)(=O)N/N=C(\CSc2ccc(N(C)C)cc2)c2ccccc2)cc1
- T/C (dose: 50.0 mg/kg/injection, schedule: Q04DX002 (ip), vehicle: saline with Tween-80): 105 % of control
- T/C [13]: 86 % of control
- T/C [14]: 97 % of control
- T/C [15]: 90 % of control

Structure (SMILES): CC(O)C1CCCNC1 (stereo not drawn)
- T/C [3]: 108 % of control
- T/C [4]: 97 % of control

Structure (SMILES): O=C(Nc1ccccc1)Nc1ccccc1
- T/C (dose: 50.0 mg/kg/injection, schedule: Q01DX009 (ip), vehicle: saline with Tween-80): 96 % of control
- T/C [6]: 97 % of control
- T/C [21]: 91 % of control
- T/C [10]: 90 % of control
- T/C [7]: 92 % of control
- T/C [25]: 103 % of control
- T/C [23]: 95 % of control
- T/C [8]: 94 % of control
- T/C [24]: 96 % of control

Structure (SMILES): Cc1ccc(-n2c(O)c(N=Nc3ccccc3C)c(=O)n(-c3ccc(Br)cc3)c2=S)cc1
- T/C (dose: 37.5 mg/kg/injection, schedule: Q01DX001 (ip), vehicle: Klucel (hydroxypropylcellulose) (HPC)): 96 % of control
- T/C (dose: 75.0 mg/kg/injection, schedule: Q01DX001 (ip), vehicle: Klucel (hydroxypropylcellulose) (HPC)): 101 % of control
- T/C (dose: 150.0 mg/kg/injection, schedule: Q01DX001 (ip), vehicle: Klucel (hydroxypropylcellulose) (HPC)): 110 % of control

Structure (SMILES): CCCCC(O)CCC (stereo not drawn)
- T/C [1]: 96 % of control
- T/C [21]: 98 % of control
- T/C [10]: 98 % of control
- T/C [16]: 100 % of control
- T/C [2]: 107 % of control
- T/C [25]: 95 % of control
- T/C [23]: 93 % of control
- T/C [17]: 98 % of control
- T/C [26]: 95 % of control
- T/C [22]: 91 % of control
- T/C [24]: 93 % of control
- T/C [18]: 98 % of control

Structure (SMILES): CC(C)(C)c1ccc(OC(=O)Nc2ccc(Cl)cc2[N+](=O)[O-])c(Br)c1
- T/C [1]: 98 % of control
- T/C [2]: 93 % of control
- T/C [26]: 98 % of control

Structure (SMILES): COC(c1ccccc1)c1ccccc1
- T/C [5]: 109 % of control
- T/C [6]: 94 % of control
- T/C [7]: 100 % of control
- T/C [8]: 94 % of control

Structure (SMILES): CC1CC(C#N)C(CCC#N)CC1C (stereo not drawn)
- T/C [1]: 104 % of control
- T/C [10]: 93 % of control
- T/C [2]: 106 % of control
- T/C [23]: 102 % of control
- T/C [24]: 100 % of control

Structure (SMILES): C=CC[As](C)(=O)O
- T/C [19]: 109 % of control
- T/C [20]: 94 % of control
